Among the data in patent US12065445B2, “CDK2 inhibitors and methods of using the same” (Cedilla Therapeutics, Inc., priority 2021, dated 2024) are IC50 values, retold here.

By IC50 is commonly meant the concentration that gives 50% inhibition.

Assay [1] concerns Kuramochi cells. Nature of the assay: BrdU Cell Proliferation Assay. It counts as cell-based. Particulars: read-out: BrdU - KURAMOCHI.1: IC50. In short, it runs like this: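 Signal is 450 nm absorbance from a peroxidase anti-BrdU ELISA after a 1-hour BrdU label, background-subtracted and normalized to DMSO-treated wells. Kuramochi cells (2,000 per well) had been exposed to compound for 4 days. Dosing used a 10-point dose response in 3-fold steps.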

Assay [2] has as its system Kuramochi cells labeled with mApple-H2B. Nature of the assay: IncuCyte Cell Proliferation Assay. It counts as cell-based. Particulars: 72 h. In short, it runs like this:
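GI50 came from dose-response fits of cell-count fold change between 0 and 72 h, normalized to DMSO controls. Counts were fluorescent nuclei from live-cell images over a 10-point, ½ log series starting at 20 μM.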

Regarding `C[C@@H](OCC1CCC(F)(F)CC1)[C@H](NC(=O)[C@@H]1CN(C(=O)c2cncs2)CC12CN(C(=O)[C@H]1CC1(C)C)C2)C(=O)N1C2CCC1COC2` [I-468], the concentration for half-maximal inhibition (IC50) in assay [1] and in assay [2] was ≤ 0.5 µM each time.

`CC1(C)C[C@@H]1C(=O)N1CC2(CN(C(=O)c3cnn(Cc4ccccc4)c3)C[C@@H]2C(=O)N[C@H]2CCc3cc(Cl)ccc32)C1` [I-133B]: the 50% inhibitory concentration (IC50) is > 10 µM in assay [1] and > 20 µM in assay [2].

Regarding `CNC(=O)[C@@H](NC(=O)[C@@H]1CN(C(=O)c2cncs2)CC12CN(C(=O)[C@H]1CC1(C)C)C2)[C@@H](C)OCC1CC2CCC1O2` (some centres unmarked) [I-462], the values for the 50% inhibitory concentration (IC50) in assay [1] and in assay [2] were > 10 µM and > 20 µM, respectively.

Turning to `C[C@@H](OCC1CCCCC1)[C@@H](COC1CCC(F)(F)CC1)NC(=O)[C@@H]1CN(C(=O)c2cnn(Cc3ccccc3)c2)CC12CN(C(=O)[C@H]1CC1(C)C)C2` [I-271], the IC50 in assay [1] and in assay [2] was ≤ 0.5 µM throughout.

Consider `COC[C@H]1CCCN(C(=O)[C@@H](NC(=O)[C@@H]2CN(C(=O)c3cncs3)CC23CN(C(=O)[C@H]2CC2(C)C)C3)[C@@H](C)O[C@H](C)C2CCCCC2)C1` [I-367], for which the 50% inhibitory concentration (IC50) in assay [1] and in assay [2] was 0.5 to 5 µM throughout.

For `CNC(=O)[C@@H](NC(=O)[C@@H]1CN(C(=O)c2cnn(Cc3ccccc3)c2)CC12CN(C(=O)[C@H]1CC1(C)C)C2)[C@@H](C)OCC1CCC(C)(C)CC1` [I-372], the IC50 in assay [1] and in assay [2] was ≤ 0.5 µM in each case.

Regarding `COC[C@H]1CCCN(C(=O)[C@@H](NC(=O)[C@@H]2CN(C(=O)c3cncs3)CC23CN(C(=O)[C@H]2CC2(C)C)C3)[C@@H](C)OCC2CCCCC2)C1` [I-196A, (S)—N-((2S,3R)-3-(cyclohexylmethoxy)-1-((S)-3-(methoxymethyl)piperidin-1-yl)-1-oxobutan-2-yl)-2-((S)-2,2-dimethylcyclopropanecarbonyl)-6-(thiazole-5-carbonyl)-2,6-diazaspiro[3.4]octane-8-carboxamide], the 50% inhibitory concentration (IC50) in assay [1] and in assay [2] was ≤ 0.5 µM each time.

On to `C[C@@H](OCC1CCCCC1)[C@H](NC(=O)C1CN(C(=O)C2CCC(=O)NC2)CC12CN(C(=O)[C@H]1CC1(C)C)C2)C(=O)N1CCCCC1` (some centres unmarked) [I-265], for which the half-inhibitory concentration (IC50) in assay [1] was > 10 µM; in assay [2] it was > 20 µM.

Regarding `C[C@@H](OCC1CCCCC1)[C@H](NC(=O)[C@@H]1CN(C(=O)c2cnn(Cc3ccccc3)c2)CC12CN(C(=O)[C@H]1CC1(C)C)C2)C(=O)N1CC(C)(C)C1` [I-153A], the IC50 in assay [1] and in assay [2] was ≤ 0.5 µM each time.

Take `C[C@@H](OCC1CCC(F)(F)CC1)[C@H](NC(=O)[C@@H]1CN(C(=O)c2cn[nH]c2)CC12CN(C(=O)[C@H]1CC1(C)C)C2)C(=O)N1CCC(F)(F)CC1` [I-228A]: the IC50 is > 10 µM in assay [1] and > 20 µM in assay [2].

On to `CNC(=O)[C@@H](NC(=O)[C@@H]1CN(C(=O)c2cnn(Cc3ccccc3)c2)CC12CN(C(=O)[C@H]1CC1(C)C)C2)[C@@H](C)OCc1ccc(Br)cc1` [I-263], for which the half-maximal inhibitory concentration (IC50) in assay [1] and in assay [2] was 0.5 to 5 µM throughout.

For `CNC(=O)[C@@H](NC(=O)[C@@H]1CN(C(=O)c2cncs2)CC12CN(C(=O)[C@H]1CC1(C)C)C2)[C@@H](C)OCC1CCCC2(CC2)C1` (some centres unmarked) [I-370], the IC50 in assay [1] and in assay [2] was ≤ 0.5 µM in each case.

As to `C[C@@H](OCC1CCC(F)(F)CC1)[C@H](NC(=O)[C@H]1CN(C(=O)c2cnn(Cc3ccc(F)cc3)c2)CC12CN(C(=O)[C@H]1CC1(C)C)C2)C(=O)N1CCC(F)(F)CC1` [I-164B], the IC50 in assay [1] and in assay [2] was 0.5 to 5 µM in each case.

`CNC(=O)[C@@H](CO)NC(=O)C1CN(C(=O)c2cnn(Cc3ccccc3)c2)CC12CN(C(=O)[C@H]1CC1(C)C)C2` (some centres unmarked) [I-261]: the IC50 in assay [1] is > 10 µM; in assay [2] it was > 20 µM.

`C[C@@H](OCC1CCCCC1)[C@H](NC(=O)[C@@H]1CN(C(=O)c2cnn(Cc3ccccc3)c2)CC12CN(C(=O)[C@H]1CC1(C)C)C2)C(=O)N1CCC(F)(F)CC1` [I-149A]: the half-maximal inhibitory concentration (IC50) in assay [1] and in assay [2] was ≤ 0.5 µM throughout.

For `C[C@@H](OCC1CCCCC1)[C@H](NC(=O)C1CN(C(=O)c2cnn(Cc3ccccc3)c2)CC12CN(C(=O)[C@H]1CC1(C)C)C2)C(=O)N1CCOCC1` (some centres unmarked) [I-152 mixture], the half-maximal inhibitory concentration (IC50) in assay [1] and in assay [2] was ≤ 0.5 µM each time.

In the case of `C[C@@H](OCC1CCC(F)(F)CC1)[C@H](NC(=O)[C@@H]1CN(C(=O)c2cncs2)CC12CN(C(=O)[C@H]1CC1(C)C)C2)C(=O)N1CCC[C@H](COC(F)(F)F)C1` [I-326], the IC50 in assay [1] and in assay [2] was ≤ 0.5 µM in each case.

Take `Cc1ccc2[nH]c(CNC(=O)C3CN(C(=O)c4cnn(Cc5ccccc5)c4)CC34CN(C(=O)[C@H]3CC3(C)C)C4)nc2c1` (some centres unmarked) [I-278]: the values for the concentration for half-maximal inhibition (IC50) in assay [1] and in assay [2] were > 10 µM and > 20 µM, respectively.

As for `CNC(=O)[C@@H](NC(=O)[C@@H]1CN(C(=O)c2scnc2C(C)(C)C)CC12CN(C(=O)[C@H]1CC1(C)C)C2)[C@@H](C)OCC1CCCCC1` [I-231A], the IC50 in assay [1] was > 10 µM; in assay [2], > 20 µM.

For the molecule `C[C@@H](OCC1CCOCC1)[C@H](NC(=O)[C@@H]1CN(C(=O)c2cncs2)CC12CN(C(=O)[C@H]1CC1(C)C)C2)C(=O)N1CCC(F)(F)CC1` [I-288], the IC50 in assay [1] was > 10 µM; in assay [2], 5 to 20 µM.

For `CNC(=O)[C@@H](NC(=O)[C@@H]1CN(C(=O)c2cnn(Cc3ccccc3)c2)CC12CN(C(=O)[C@H]1CC1(C)C)C2)[C@@H](C)OCC1C[C@@H](C)C[C@@H](C)C1` (some centres unmarked) [I-249], the half-inhibitory concentration (IC50) in assay [1] and in assay [2] was 0.5 to 5 µM in each case.

Consider `CNC(=O)[C@@H](NC(=O)C1CN(C(=O)c2cnn(Cc3ccccc3)c2)CC12CN(C(=O)[C@H]1CC1(C)C)C2)[C@@H](C)OCc1ccccn1` (some centres unmarked) [I-257], for which the IC50 in assay [1] was > 10 µM; in assay [2], > 20 µM.

As to `CNC(=O)[C@@H](NC(=O)[C@H]1CN(C(=O)c2cnn(Cc3ccccc3)c2)CC12CN(C(=O)[C@H]1CC1(C)C)C2)[C@@H](C)OCC1CCC(C(F)(F)F)CC1` (some centres unmarked) [I-141B], the values for the concentration for half-maximal inhibition (IC50) in assay [1] and in assay [2] were 0.5 to 5 µM and 5 to 20 µM, respectively.

In the case of `CNC(=O)[C@@H](NC(=O)[C@@H]1CN(C(=O)c2cnn(Cc3ccccc3)c2)CC12CN(C(=O)NC1CC1)C2)[C@@H](C)OCC1CCCCC1` [I-268, (S)-6-(1-benzyl-1H-pyrazole-4-carbonyl)-N8-((2S,3R)-3-(cyclohexylmethoxy)-1-(methylamino)-1-oxobutan-2-yl)-N2-cyclopropyl-2,6-diazaspiro[3.4]octane-2,8-dicarboxamide], the half-inhibitory concentration (IC50) in assay [1] is > 10 µM; in assay [2] it was > 20 µM.

Turning to `Cc1ccc(C(C)NC(=O)[C@@H]2CN(C(=O)c3cnn(Cc4ccccc4)c3)CC23CN(C(=O)[C@H]2CC2(C)C)C3)nn1` (some centres unmarked) [I-366], the half-inhibitory concentration (IC50) in assay [1] and in assay [2] was 0.5 to 5 µM each time.

Regarding `C[C@@H](OCC1CCCCC1)[C@H](NC(=O)C1CN(C(=O)c2cncs2)CC12CN(C(=O)[C@H]1CC1(C)C)C2)C(=O)N1CCC[C@H](CO)C1` (some centres unmarked) [I-193], the IC50 in assay [1] and in assay [2] was ≤ 0.5 µM each time.

Take `CNC(=O)[C@@H](NC(=O)[C@H]1CN(C(=O)c2cnn(Cc3ccccc3)c2)CC12CN(C(=O)[C@H]1CC1(C)C)C2)[C@@H](C)OCCC1CCCCC1` [I-125B]: the IC50 in assay [1] and in assay [2] was 0.5 to 5 µM each time.

Take `C[C@@H](OCC1CCCCC1)[C@H](NC(=O)[C@@H]1CN(C(=O)c2cncs2)CC12CN(C(=O)[C@H]1CC1(C)C)C2)C(=O)N1CCNCC1` [I-328]: the 50% inhibitory concentration (IC50) in assay [1] and in assay [2] was 0.5 to 5 µM each time.
